The target of one assay is WDR5 (Homo sapiens, UniProt P61964). The assay is described as follows: WDR5 HTRF binding assay. To be noted: read-out: (a) WDR5 HTRF Pep Val v.1[Inhibitor/IC50]Qualified AC50. An outline of the steps: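 6 nM WDR5 and 20 nM biotin-MLL1 WIN peptide (3762-3773) were incubated with compound (12-point, 3-fold dilutions) in pH 7.5 Hepes/NaCl/DTT buffer for 20 min at rt. Streptavidin-APC plus anti-His-Eu were then added for 1 hr, with HTRF read at 665/615. IC50 was fit from control-normalized activity; the counter assay used 15 nM biotin-PEG-His peptide.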
A general note: In TR-FRET formats the signal depends on donor and acceptor labels being close together.

Assay [1] addresses wild type MLL1 four-member complex (MLL1-4C) (Homo sapiens, UniProt P61964). The assay is described as follows: MLL1 LC-MS assay (SAH production). Format: biochemical. To be noted: read-out: (b) MLL LCMS Peptide Val.v.1 Qualified AC50. An outline of the steps:
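MLL1-4C (30 nM final) was preincubated 20 min with compound (3-fold dilutions, 8 or 12 points) and SAM in Tris-HCl pH 8.0 buffer. H3K4me0 peptide (histone H3[1-21]-biotin) was then added, giving final 2.5 μM SAM and 10 μM substrate, and reactions ran 120 min at rt. After TFA/d4-SAH quench, SAH was quantified by LC-MS/MS and IC50 fitted from control-normalised activity.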

The test system of another assay is MV4-11 cells. The assay is described as follows: MV4-11 6-day cell growth CTG (CellTiter-Glo) assay. Type of assay: cell-based. The note with it: Homo sapiens, MV4-11, 144 h, 6 days, read-out: (c) MLL/WDR5 cell proliferation assay//MLL/WDR5 proliferation MV4:11 Qualified AC50. In a few lines: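 Exponentially growing MV4-11 AML cells (RPMI 1640, 10% FBS) seeded at 300 cells/well with 12-point 1:3 compound dilutions, top final concentration 50 μM. Viability read by CellTiter-Glo luminescence after 6 days at 37° C; % inhibition vs DMSO-only wells fitted to dose-response for IC50.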

For the molecule `CCOc1cc([C@H](C)N2CCc3c(CN(C)C)cc(Cn4ccnc4NC)cc3C2=O)cnc1C#N` [Example 32, (S)-5-(1-(5-((dimethylamino)methyl)-7-((2-(methylamino)-1H-imidazol-1-yl)methyl)-1-oxo-3,4-dihydroisoquinolin-2(1H)-yl)ethyl)-3-ethoxypicolinonitrile], the IC50 at WDR5 was in the range of 0.01 to 1 µM. The AC50 (in assay [1]; in the assay with MV4-11 cells) was 0.01 to 1 µM throughout.

On to `CNc1nccn1Cc1cc2c(c(-c3cn(C)nc3C)c1)CCN([C@H](C)c1cc(OC)c(F)cn1)C2=O` [Example 71, (R)-5-(1,3-dimethyl-1H-pyrazol-4-yl)-2-(1-(5-fluoro-4-methoxypyridin-2-yl)ethyl)-7-((2-(methylamino)-1H-imidazol-1-yl)methyl)-3,4-dihydroisoquinolin-1(2H)-one], for which the IC50 at WDR5 lay within 0.01 to 1 µM. Further, the AC50 (in assay [1]; in the assay on MV4-11 cells) was 0.01 to 1 µM in each case.

On to `CCOc1cc(C(C)N2CCc3c(cc(CCN(C)CC)cc3N3CCCC3)C2=O)ncc1C#N` (stereo not drawn) [Example 207, 4-ethoxy-6-(1-(7-(2-(ethyl(methyl)amino)ethyl)-1-oxo-5-(pyrrolidin-1-yl)-3,4-dihydroisoquinolin-2(1H)-yl)ethyl)nicotinonitrile], for which the IC50 on WDR5 fell in the range of 0.01 to 1 µM. Besides, the AC50 in assay [1] is 0.01 to 1 µM; with MV4-11 cells, 1 to 25 µM.

On to `CCOc1cc(CN2CCc3c(cc(CCN4CC[C@H]4C)cc3-c3ccc(F)nc3C)C2=O)ncc1C#N` [Example 245], for which the IC50 on WDR5 lay within 0.01 to 1 µM. The AC50 (in assay [1]; with MV4-11 cells) was 0.01 to 1 µM throughout.

As for `CCOc1cc([C@H](C)N2CCc3c(cc(CCN(C)CC)cc3-c3c(OC)ccnc3C)C2=O)ncc1C#N` [Example 191, 4-ethoxy-6-((1S)-1-(7-(2-(ethyl(methyl)amino)ethyl)-5-(4-methoxy-2-methylpyridin-3-yl)-1-oxo-3,4-dihydroisoquinolin-2(1H)-yl)ethyl)nicotinonitrile], at WDR5, the IC50 was under 0.01 µM. Moreover, the AC50 (in assay [1]; in the assay on MV4-11 cells) was 0.01 to 1 µM throughout.

Take `CCOc1cc([C@H](C)N2CCc3c(cc(Cn4ccnc4NC)cc3C3CC3)C2=O)cnc1C#N` [Example 80, (S)-5-(1-(5-cyclopropyl-7-((2-(methylamino)-1H-imidazol-1-yl)methyl)-1-oxo-3,4-dihydroisoquinolin-2(1H)-yl)ethyl)-3-ethoxypicolinonitrile]: the IC50 on WDR5 is 0.01 to 1 µM. The AC50 (in assay [1]; in the assay on MV4-11 cells) was 0.01 to 1 µM each time.

On to `CNc1nccn1Cc1cc(CN2CCOCC2)c2c(c1)C(=O)N([C@@H](C)c1cc(OC)c(F)cn1)CC2` (single isomer, unassigned) [Example 7], for which, on WDR5, the IC50 was under 0.01 µM. The AC50 (in assay [1]; with MV4-11 cells) was 0.01 to 1 µM throughout.

Take `CCOc1cc([C@H](C)N2CCc3c(CN(C)C4CC4)cc(Cn4ccnc4NC)cc3C2=O)ncc1Cl` [Example 22, (S)-2-(1-(5-chloro-4-ethoxypyridin-2-yl)ethyl)-5-((cyclopropyl(methyl)amino)methyl)-7-((2-(methylamino)-1H-imidazol-1-yl)methyl)-3,4-dihydroisoquinolin-1(2H)-one]: at WDR5, the IC50 is 0.01 to 1 µM. Also, the AC50 (in assay [1]; with MV4-11 cells) was 0.01 to 1 µM each time.

As to `CCOc1cc([C@H](C)N2CCc3c(cc(CCN(C)CC)cc3-c3c[nH]c(=O)cc3C(F)(F)F)C2=O)ncc1C#N` [Example 176, (S)-4-ethoxy-6-(1-(7-(2-(ethyl(methyl)amino)ethyl)-1-oxo-5-(6-oxo-4-(trifluoromethyl)-1,6-dihydropyridin-3-yl)-3,4-dihydroisoquinolin-2(1H)-yl)ethyl)nicotinonitrile], the IC50 at WDR5 was under 0.01 µM. For the same molecule, the AC50 in assay [1] was 0.01 to 1 µM; in the assay on MV4-11 cells, under 0.01 µM.

Source of the values: patent publication US20220289732A1, “HETEROCYCLIC WDR5 INHIBITORS AS ANTI-CANCER COMPOUNDS” (NOVARTIS AG, priority 2019, published 2022).
